The series concerns the target IRF4. To be noted: ASO.

Where “and” joins values, the source holds several entries; their conditions need not be identical. Identical values can stand only once. After the bases stand the sugars from the 5' end (letter, count) and the backbone: PS all phosphorothioate, else s phosphorothioate and o phosphodiester by linkage. Methylation of C is not given here. e = 2'-O-(2-methoxyethyl) (MOE); k = constrained ethyl (cEt); d = 2'-deoxy (DNA)

TGACAGCCGAAGCATT (sugars k3 d10 k3, PS): where the note is “SK-MEL-28, 4 µM”, the target mRNA inhibition stood at 38%. In the case of TGACATAAAGGACCCC (sugars k3 d10 k3, PS), for the setting “SK-MEL-28, 4 µM”, the target mRNA inhibition is 48%. The same measure, in the same setting: with TGAGAAAGCATGGCTC (sugars k3 d10 k3, PS) the figure was 40%.

For TGAGACTACACCTACA (sugars k3 d10 k3, PS), the target mRNA inhibition (SK-MEL-28, 4 µM) was found to be 19%.

For the sequence TGAGAGTAAACTTGGC (sugars k3 d10 k3, PS), the target mRNA inhibition (MM.1R, 0.0625 µM) is -3%; the target mRNA inhibition (MM.1R, 0.074 µM) was 5%; the target mRNA inhibition (MM.1R, 0.222 µM) was determined as 1%; the target mRNA inhibition (MM.1R, 0.25 µM) came to 11%; the target mRNA inhibition (MM.1R, 0.666 µM) stood at 18%; the target mRNA inhibition (MM.1R, 1 µM) is 20%. The target mRNA inhibition runs as follows: (MM.1R, 2 µM) 32%; (MM.1R, 4 µM) 44%; (SK-MEL-28, 4 µM) 65%. Take TGAGATGCGGAGGTTC (sugars k3 d10 k3, PS): the target mRNA inhibition (MM.1R, 1 µM) is 33% and 27%.

For TGATAAAGGCTGAACT (sugars k3 d10 k3, PS), where the note is “SK-MEL-28, 4 µM”, the target mRNA inhibition turned out to be 41%. Take “TGATAGCTGAGCTGAT (sugars kddddddddddkekek, PS)”: the target mRNA inhibition (MM.1R, 1 µM) was found to be 22%. Turning to TGATGGAGAAACGAGC (sugars k3 d10 k3, PS), the target mRNA inhibition (MM.1R, 1 µM) was -2%. Consider “TGATGTGATAGCTGAG (sugars kdddddddddkekeke, PS)”, for which the target mRNA inhibition (MM.1R, 1 µM) is 47%. With TGCATAGTGATGAGAT (sugars k3 d10 k3, PS), for the setting “SK-MEL-28, 4 µM”, the target mRNA inhibition was 37%. Regarding TGCCAAAGAGCCCAAT (sugars k3 d10 k3, PS), the target mRNA inhibition (MM.1R, 1 µM) is -19%.

For TGCCACAGTTGAACCC (sugars k3 d10 k3, PS), the target mRNA inhibition (SK-MEL-28, 4 µM) worked out at 50%. Turning to TGCCAGTTCCTTGTGA (sugars k3 d10 k3, PS), for the setting “MM.1R, 1 µM”, the target mRNA inhibition was -2%.

Regarding TGCCCAATACATATCC (sugars k3 d10 k3, PS), the target mRNA inhibition (SK-MEL-28, 4 µM) was determined as 59%. In the case of TGCCGAACTCTCCGCC (sugars k3 d10 k3, PS), the target mRNA inhibition (SK-MEL-28, 4 µM) was 43%. For the sequence TGCCTTACCTGACAAG (sugars k3 d10 k3, PS), the target mRNA inhibition (MM.1R, 1 µM) came out at 4%. With TGCCTTGTGACATAAA (sugars k3 d10 k3, PS), the target mRNA inhibition (SK-MEL-28, 4 µM) was determined as 45%. On to TGCTAAAGGAGTGCAG (sugars k3 d10 k3, PS), for which the target mRNA inhibition (MM.1R, 1 µM) is -17%. For the sequence TGCTAGATTCTCCCTG (sugars k3 d10 k3, PS), where the note is “SK-MEL-28, 4 µM”, the target mRNA inhibition came out at 33%. With TGCTAGGATTCCTAAC (sugars k3 d10 k3, PS), the target mRNA inhibition (SK-MEL-28, 4 µM) worked out at 26%. On to TGCTGATGTGTTCTGG (sugars k3 d10 k3, PS), for which the target mRNA inhibition (SK-MEL-28, 4 µM) was 67% and 58%.

For the sequence TGCTTGAATTCCTTGA (sugars k3 d10 k3, PS), the target mRNA inhibition was -6% and -14% (MM.1R, 0.0625 µM); 13% (MM.1R, 0.074 µM); 12% (MM.1R, 0.222 µM); 1% and -8% (MM.1R, 0.25 µM); 23% (MM.1R, 0.666 µM); 23% and 25% (MM.1R, 1 µM). Moreover, the target mRNA inhibition is, setting by setting: (MM.1R, 2 µM) 39%; (MM.1R, 4 µM) 53% and 68%; (SK-MEL-28, 4 µM) 67%. As for “TGCTTGAGGTTTTCCT (sugars k2 d9 e3 k2, PS)”, the target mRNA inhibition (MM.1R, 1 µM) came out at 32%. With “TGCTTGAGGTTTTCCT (sugars kkdddddddddekeke, PS)”, the target mRNA inhibition (MM.1R, 1 µM) worked out at 45%. In the case of “TGCTTGAGGTTTTCCT (sugars kkdddddddddkdkdk, PS)”, for the setting “MM.1R, 1 µM”, the target mRNA inhibition is 45%.

TGCTTTGCAGCATTGG (sugars k3 d10 k3, PS): where the note is “MM.1R, 1 µM”, the target mRNA inhibition was found to be 30%. On to TGGACACTTTTAGAGA (sugars k3 d10 k3, PS), for which the target mRNA inhibition (SK-MEL-28, 4 µM) is 72%.

Consider TGGACCCACGAAGATT (sugars k3 d10 k3, PS), for which the target mRNA inhibition (SK-MEL-28, 4 µM) was 38%. Turning to TGGCAACCATTTTCAC (sugars k3 d10 k3, PS), the target mRNA inhibition (SK-MEL-28, 4 µM) turned out to be 7%. On the same count and under the same terms, with TGGCACGAGGAAGCAT (sugars k3 d10 k3, PS) the figure was 46%; with TGGCAGTGGAGCTCCA (sugars k3 d10 k3, PS), 46%; with TGGCCACAGAGGACTT (sugars k3 d10 k3, PS), 33%.

With “TGGGATTATATACTGG (sugars k2 d9 e3 k2, PS)”, the target mRNA inhibition (MM.1R, 1 µM) amounted to 54%. Turning to “TGGGATTATATACTGG (sugars kddddddddddkekek, PS)”, the target mRNA inhibition (MM.1R, 1 µM) worked out at 43%. TGGTACACCTCTTCAC (sugars k3 d10 k3, PS): where the note is “SK-MEL-28, 4 µM”, the target mRNA inhibition was determined as 32%. TGGTAGGTCAAACTCC (sugars k3 d10 k3, PS): for the setting “SK-MEL-28, 4 µM”, the target mRNA inhibition was -13%. For the sequence TGGTTCTCTATAGTGT (sugars k3 d10 k3, PS), where the note is “SK-MEL-28, 4 µM”, the target mRNA inhibition amounted to 71%.

On to “TGGTTGGCTGGTCTTT (sugars k2 d9 e3 k2, PS)”, for which the target mRNA inhibition (MM.1R, 1 µM) is 40%.
